Assay results published in patent US12383608B2, “WT1 helper peptides and combinations of WT1 helper peptide and conjugate of cancer antigen peptides” (Sumitomo Pharma Co., Ltd., priority 2016, dated 2025).

Tested on: HLA-A*02:01 transgenic mouse (C57BL/6CrHLA-A2.1DR1)
Assay: In vivo CTL induction in HLA-A*02:01 transgenic mouse (IFNγ ELISPOT assay on splenocytes)
Conditions: Montanide ISA 51 VG, intradermal; for Effect of the cocktail vaccine comprising the peptide on the CTL induction by the compound of formula (4): cocktail vaccine: helper peptide (170-315 μg per site) + compound of formula (4) (250 μg per site), molar ratio 1:1.13-1.15 or equimolar, compared with compound of formula (4) alone; for CTL induction by the cocktail vaccine comprising the peptide in addition to the compound of formula (4) (increase in number of CTLs): cocktail vaccine: helper peptide + compound of formula (4), compared with the vaccine comprising the compound of formula (4)
Method: The HLA-A*02:01 transgenic mouse (C57BL/6CrHLA-A2.1DR1) lacks mouse MHC, and instead expresses a chimeric IILA of a human MHC, HLA-A*02:01 with a mouse MHC, H-2Db, and HLA-DRB1*01:01.
The solution was diluted with water for injection to a concentration of 10 mg/ml, and then converted to an emulsion by addition of an equal volume of Montanide ISA 51 VG. […] One week after the administration, the mice were sacrificed with CO2 gas. Splenocytes were harvested from spleens removed from the mice. For detecting IFNγ-producing splenocytes, an IFNγ ELISPOT assay kit was used. In particular, an ELISPOT plate was treated with an anti-mouse-IFNγ antibody on the day before preparation of the splenocyte samples. On the next day, the plate was blocked by treatment with an RPMI 1640 medium with 10% FBS. To the blocked ELISPOT plate, the splenocyte samples from the HLA-A*02:01 transgenic mice were added at 1.25×10^5 cells/well. For in vitro stimulation of the cells, the peptide of SEQ ID NO: 15 was dissolved in DMSO at a concentration of 40 mg/ml, diluted with RPMI 1640 with 10% FBS to 40 μg/ml, and added to the splenocyte-containing wells at a final concentration of 10 μg/ml. The plate was incubated for 17 hours at 37° C. under an atmosphere of 5% CO2. Then, after removal of the culture medium from the wells, the ELISPOT plate was subjected to treatment for cell staining in accordance with the manufacturer's protocol. Stained spots were counted on ImmunoSpot Analyzer (C.T.L.).
The scale on the vertical axis of the graph of FIG. 1 indicates the number of cells (CTLs) which produced IFNγ in response to the stimulation with the peptide of SEQ ID NO: 15. The compound and the peptide administered to the mice are described under the bars. […] Therefore, effect of each vaccine in CTL induction is known from the difference in cell count between the black bar and the white bar. When no IFNγ is produced by cells in the absence of the stimulation with SEQ ID NO: 15, a white bar cannot have a height.
The solution was diluted with water for injection to a concentration of 10 mg/ml, and then converted to an emulsion by addition of an equal volume of Montanide ISA 51 VC.
(§1) The solution was diluted with water for injection to a concentration of 10 mg/ml, and then converted to an emulsion by addition of an equal volume of Montanide ISA 51 VG.
as §1, §1, §1, §1, §1, §1, §1, §1, §1

Sequence: YFKLSHLQMHSRKHT [SEQ ID NO: 12]
- Effect of the cocktail vaccine comprising the peptide on the CTL induction by the compound of formula (4): enhanced
- CTL induction by the cocktail vaccine comprising the peptide in addition to the compound of formula (4) (increase in number of CTLs): highly effective in CTL induction

Sequence: RYFKLSHLQMHSRKH [SEQ ID NO: 11]
- Effect of the cocktail vaccine comprising the peptide on the CTL induction by the compound of formula (4): enhanced
- CTL induction by the cocktail vaccine comprising the peptide in addition to the compound of formula (4) (increase in number of CTLs): highly effective in CTL induction

Sequence: CNKRYFKLSHLQMHSRK [SEQ ID NO: 7, reference compound]
- Effect of the cocktail vaccine comprising the peptide on the CTL induction by the compound of formula (4): enhanced
- CTL induction by the cocktail vaccine comprising the peptide in addition to the compound of formula (4) (increase in number of CTLs): highly effective in CTL induction

Sequence: RYFKLSHLQMH [SEQ ID NO: 45]
- Effect of the cocktail vaccine comprising the peptide on the CTL induction by the compound of formula (4): enhanced
- CTL induction by the cocktail vaccine comprising the peptide in addition to the compound of formula (4) (increase in number of CTLs): highly effective in CTL induction

Sequence: RYFKLSHLQMHSRKHT [SEQ ID NO: 48]
- Effect of the cocktail vaccine comprising the peptide on the CTL induction by the compound of formula (4): enhanced
- CTL induction by the cocktail vaccine comprising the peptide in addition to the compound of formula (4) (increase in number of CTLs): highly effective in CTL induction

Sequence: NKRYFKLSHLQMHSRK [SEQ ID NO: 8]
- Effect of the cocktail vaccine comprising the peptide on the CTL induction by the compound of formula (4): enhanced
- CTL induction by the cocktail vaccine comprising the peptide in addition to the compound of formula (4) (increase in number of CTLs): highly effective in CTL induction

Sequence: RYFKLSHLQMHSRK [SEQ ID NO: 39]
- Effect of the cocktail vaccine comprising the peptide on the CTL induction by the compound of formula (4): enhanced
- CTL induction by the cocktail vaccine comprising the peptide in addition to the compound of formula (4) (increase in number of CTLs): highly effective in CTL induction

Sequence: KRYFKLSHLQMHSRKH [SEQ ID NO: 10, reference compound]
- Effect of the cocktail vaccine comprising the peptide on the CTL induction by the compound of formula (4): enhanced
- CTL induction by the cocktail vaccine comprising the peptide in addition to the compound of formula (4) (increase in number of CTLs): highly effective in CTL induction

Sequence: RYFKLSHLQMHSRKHTGE [SEQ ID NO: 49]
- Effect of the cocktail vaccine comprising the peptide on the CTL induction by the compound of formula (4): enhanced
- CTL induction by the cocktail vaccine comprising the peptide in addition to the compound of formula (4) (increase in number of CTLs): highly effective in CTL induction

Sequence: GCNKRYFKLSHL [SEQ ID NO: 46]
- Effect of the cocktail vaccine comprising the peptide on the CTL induction by the compound of formula (4): enhanced
- CTL induction by the cocktail vaccine comprising the peptide in addition to the compound of formula (4) (increase in number of CTLs): highly effective in CTL induction

Sequence: GCNKRYFKLSHLQMHSRK [SEQ ID NO: 6]
- Effect of the cocktail vaccine comprising the peptide on the CTL induction by the compound of formula (4): enhanced
- CTL induction by the cocktail vaccine comprising the peptide in addition to the compound of formula (4) (increase in number of CTLs): highly effective in CTL induction

Sequence: KRYFKLSHLQMHSRK [SEQ ID NO: 9]
- Effect of the cocktail vaccine comprising the peptide on the CTL induction by the compound of formula (4): enhanced
- CTL induction by the cocktail vaccine comprising the peptide in addition to the compound of formula (4) (increase in number of CTLs): highly effective in CTL induction

Sequence: PGCNKRYFKLSHLQMHSRKHTG [SEQ ID NO: 4, reference compound]
- Effect of the cocktail vaccine comprising the peptide on the CTL induction by the compound of formula (4): enhanced
- CTL induction by the cocktail vaccine comprising the peptide in addition to the compound of formula (4) (increase in number of CTLs): highly effective in CTL induction

Sequence: AYPGCNKRYFKLSHLQMHSRK [SEQ ID NO: 44]
- Effect of the cocktail vaccine comprising the peptide on the CTL induction by the compound of formula (4): enhanced
- CTL induction by the cocktail vaccine comprising the peptide in addition to the compound of formula (4) (increase in number of CTLs): highly effective in CTL induction

Sequence: FKLSHLQMHSRKHTG [SEQ ID NO: 13]
- Effect of the cocktail vaccine comprising the peptide on the CTL induction by the compound of formula (4): enhanced
- CTL induction by the cocktail vaccine comprising the peptide in addition to the compound of formula (4) (increase in number of CTLs): highly effective in CTL induction

Sequence: YPGCNKRYFKLSHLQ [SEQ ID NO: 3]
- Effect of the cocktail vaccine comprising the peptide on the CTL induction by the compound of formula (4): enhanced
- CTL induction by the cocktail vaccine comprising the peptide in addition to the compound of formula (4) (increase in number of CTLs): highly effective in CTL induction

Sequence: PGCNKRYFKLSHLQMHSRK [SEQ ID NO: 5]
- Effect of the cocktail vaccine comprising the peptide on the CTL induction by the compound of formula (4): enhanced
- CTL induction by the cocktail vaccine comprising the peptide in addition to the compound of formula (4) (increase in number of CTLs): highly effective in CTL induction

Sequence: AYPGCNKRYFKLSHL [SEQ ID NO: 2]
- Effect of the cocktail vaccine comprising the peptide on the CTL induction by the compound of formula (4): enhanced
- CTL induction by the cocktail vaccine comprising the peptide in addition to the compound of formula (4) (increase in number of CTLs): highly effective in CTL induction

Sequence: KLSHLQMHSRKHTGE [SEQ ID NO: 14]
- Effect of the cocktail vaccine comprising the peptide on the CTL induction by the compound of formula (4): enhanced
- CTL induction by the cocktail vaccine comprising the peptide in addition to the compound of formula (4) (increase in number of CTLs): highly effective in CTL induction

Sequence: AYPGCNKRYFKLSHLQMH [SEQ ID NO: 43]
- Effect of the cocktail vaccine comprising the peptide on the CTL induction by the compound of formula (4): enhanced
- CTL induction by the cocktail vaccine comprising the peptide in addition to the compound of formula (4) (increase in number of CTLs): highly effective in CTL induction
